The subject of one data set is SLC2A4. The arrangement: method as in ChEMBL, PubChem. The note with it: SLC2A4, known data from the KNIME workflow; ref ChEMBL, PubChem; cited from earlier work.
The test system of another data set is SLC2A3. More on the design: method as in ChEMBL. The note with it: SLC2A3, known data from the KNIME workflow; ref ChEMBL; cited from earlier work.
The test system of the next data set is SLC2A1. More on the design: method as in ChEMBL, PubChem. The note with it: SLC2A1, known data from the KNIME workflow; ref ChEMBL, PubChem; cited from earlier work.
The target in another data set is SLC6A4 (Homo sapiens, UniProt P31645).
SLC6A4, sequence (P31645 whole entry): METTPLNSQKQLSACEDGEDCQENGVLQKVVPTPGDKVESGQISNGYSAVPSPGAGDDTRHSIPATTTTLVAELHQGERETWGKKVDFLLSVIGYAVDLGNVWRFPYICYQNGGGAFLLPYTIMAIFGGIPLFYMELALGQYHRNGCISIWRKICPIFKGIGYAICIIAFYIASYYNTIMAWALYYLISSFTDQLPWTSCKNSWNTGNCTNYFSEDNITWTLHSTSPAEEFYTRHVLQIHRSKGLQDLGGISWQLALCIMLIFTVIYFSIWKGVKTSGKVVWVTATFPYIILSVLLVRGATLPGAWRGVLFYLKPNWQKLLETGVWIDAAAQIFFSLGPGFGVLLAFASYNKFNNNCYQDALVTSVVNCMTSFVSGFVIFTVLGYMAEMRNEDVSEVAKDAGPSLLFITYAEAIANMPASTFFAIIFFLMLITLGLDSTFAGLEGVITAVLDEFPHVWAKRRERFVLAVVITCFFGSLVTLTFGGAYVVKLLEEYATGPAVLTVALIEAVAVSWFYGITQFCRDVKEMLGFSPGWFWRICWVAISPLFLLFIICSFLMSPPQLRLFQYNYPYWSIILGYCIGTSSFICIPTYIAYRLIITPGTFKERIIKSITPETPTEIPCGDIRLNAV
The test system of another data set is SLC2A2. The arrangement: method as in ChEMBL. The note with it: SLC2A2, known data from the KNIME workflow; ref ChEMBL; cited from earlier work.
A further data set deals with SLC6A19. More on the design: method as in GtoPdb, pubmed 30589598. The note with it: SLC6A19, known data from the KNIME workflow; ref GtoPdb, pubmed 30589598; cited from earlier work.
For the next data set, the system named is SLC22A3. More on the design: method as in PMID 10966924. Conditions: ChEMBL CHEMBL2078549; ref PMID 10966924; cited from earlier work.
Another data set deals with SLC22A2. The arrangement: method as in PMID 9260930. The note with it: ChEMBL CHEMBL2076808; ref PMID 9260930; cited from earlier work.
The subject of the next data set is SLC29A4. The arrangement: method as in PMID 16099839, 27506881. The note with it: GtoPdb 1120; ref PMID 16099839, 27506881; cited from earlier work.
The subject of a further data set is SLC22A1. More on the design: method as in PMID 18788725, 9655880, 28230985. The note with it: ChEMBL CHEMBL994103, CHEMBL2076233, CHEMBL4009597; ref PMID 18788725, 9655880, 28230985; cited from earlier work.
The subject of the next data set is SLC22A12 (URAT1). The note with it: cited from earlier work.
In the next data set the test system is ABCG2. More on the design: method as in Zhao et al., 2022. Conditions: ref Zhao et al., 2022; cited from earlier work.
Another data set has as its system SLC2A9 (GLUT9). Conditions: cited from earlier work.
Another data set concerns SLC22A6 (OAT1). The note with it: cited from earlier work.
In the next data set the test system is HRH1. More on the design: method as in other_targets_pubmed_ids column. The note with it: cited from earlier work.
Another data set deals with HTR2B. The arrangement: method as in other_targets_pubmed_ids column. The note with it: cited from earlier work.
The next data set concerns SLC6A15. The arrangement: method as in ChEMBL, GtoPdb, pubmed 25318072. The note with it: SLC6A15, known data from the KNIME workflow; ref ChEMBL, GtoPdb, pubmed 25318072; cited from earlier work.
A further data set has as its system PTAFR. More on the design: method as in other_targets_pubmed_ids column. The note with it: cited from earlier work.
A further data set relates to KCNK9. The arrangement: method as in other_targets_pubmed_ids column. The note with it: cited from earlier work.
In a further data set the test system is NR1H4. More on the design: method as in other_targets_pubmed_ids column. Conditions: cited from earlier work.
Another data set has as its system SCN2A. The arrangement: method as in other_targets_pubmed_ids column. The note with it: cited from earlier work.
A further data set deals with SLC6A1. More on the design: method as in ChEMBL, GtoPdb. The note with it: SLC6A1, known data from the KNIME workflow; ref ChEMBL, GtoPdb; cited from earlier work.
The test system of the next data set is SIGMAR1. The arrangement: method as in pubmed 7990111, 9057857, 12801223. Conditions: ref pubmed 7990111, 9057857, 12801223; cited from earlier work.

Molecules are shown by their SMILES.

Regarding `Cc1c(NC(=O)c2cc(C(N)=O)nc3cc(F)ccc23)c(C(F)(F)F)nn1Cc1ccc(C#N)cc1` [BAY-876], the primary_SLC_act in the data set with SLC2A4 is listed as 5.91; with SLC2A3 it was 5.56; in the data set on SLC2A1, 8.03; in the data set on SLC2A2 it was 5.03. The “dose–response effect on SERT activity under glucose-free conditions” value at SLC6A4 (glucose-free conditions, HEK293–JumpIn–SLC6A4 cells) was “could not be reproduced”. For the same compound, the “effect on SERT (SLC6A4) activity” value on SLC6A4 (medium with glucose, in words) is given as “increase in SERT (SLC6A4) activity”.
Take `CCNC(=O)/C=C/c1cccc(Br)c1` [Cinromide]: in the data set on SLC6A19, the primary_SLC_act is recorded as 6.4.
As for `CNCCCN1c2ccccc2CCc2ccccc21` [Desipramine], the “primary_SLC_act, SLC22A3” value with SLC22A3 is recorded as 4.85. For the same compound, the “primary_SLC_act, SLC22A2” value in the data set with SLC22A2 is 4.8. In the data set on SLC29A4, the “primary_SLC_act, SLC29A4” value is recorded as 4.49. Further, the “primary_SLC_act, SLC22A1” value with SLC22A1 was 5.04.
What is called IC50 is the point on the concentration scale where inhibition reaches its midpoint. On to `N#Cc1ccc(Nc2cnccc2SCc2ccccc2C(=O)O)c2ccccc12` [KPH2f], for which, in the data set on SLC22A12 (URAT1) (ChEMBL CHEMBL5157443, ref PMID 34998055), the “primary_SLC_act, SLC22A12” value is recorded as 6.62. Also, the IC50 was 0.24 µM with SLC22A12 (URAT1) (ref Zhao et al., 2022); 26.7 µM in the data set with ABCG2; 9.37 µM in the data set with SLC2A9 (GLUT9) (ref Zhao et al., 2022); 32.1 µM in the data set with SLC22A6 (OAT1) (ref Zhao et al., 2022). Moreover, the primary_SLC_act with SLC2A9 (GLUT9) (SLC2A9, known data from the KNIME workflow, ref ChEMBL, pubmed 34998055) was 5.03. In the data set with SLC22A6 (OAT1) (ChEMBL CHEMBL5157441, ref PMID 34998055), the “primary_SLC_act, SLC22A6” value is 4.49.
As to `CCOC(=O)N1CCC(=C2c3ccc(Cl)cc3CCc3cccnc32)CC1` [Loratadine], the other_targets_act in the data set with HRH1 is recorded as 6.72; with HTR2B it was 6.71; in the data set on PTAFR it was 4.3; in the data set with KCNK9 it was 4.2; in the data set with NR1H4 it was 5.51. In addition, the primary_SLC_act in the data set with SLC6A15 is recorded as 5.4.
On to `Nc1nc2ccc(OC(F)(F)F)cc2s1` [Riluzole], for which, in the data set with SCN2A, the other_targets_act is 5.66.
Turning to `Cc1ccsc1C(=CCCN1CCC[C@@H](C(=O)O)C1)c1sccc1C` [Tiagabine], the primary_SLC_act in the data set on SLC6A1 is reported as 7.18.
As for `Fc1ccc(C(OCCN2CCN(CCCc3ccccc3)CC2)c2ccc(F)cc2)cc1` [Vanoxerine (GBR12909), Vanoxerine], in the data set with SIGMAR1, the other_targets_act was 7.37.

Source of the values: article PMC11267547, “Advancing drug discovery through assay development: a survey of tool compounds within the human solute carrier superfamily” (Frontiers in Pharmacology, 2024).
